Measured values taken from publication PMC5539244, “2-Oxoesters: A Novel Class of Potent and Selective Inhibitors of Cytosolic Group IVA Phospholipase A2” (Scientific Reports, 2017).
Several values for one entry are separate records, joined by “and”; a condition that tells them apart may be missing. Equal entries are not always repeated. Where two headings read alike, the source gives them in different places.

Experiments:
[1] = biological target: T1, recombinant human GIVA cPLA2 (Homo sapiens, UniProt P47712); experiment: mixed micelle assay, GIVA cPLA2 inhibition; format: biochemical; settings: for inhibition at 0.091 mole fraction: read-out: GIVA cPLA2 % Inhibition; for GIVA cPLA2 X I(50): mole fraction of inhibitor in total substrate interface giving 50% inhibition
T1 sequence (P47712 1-749): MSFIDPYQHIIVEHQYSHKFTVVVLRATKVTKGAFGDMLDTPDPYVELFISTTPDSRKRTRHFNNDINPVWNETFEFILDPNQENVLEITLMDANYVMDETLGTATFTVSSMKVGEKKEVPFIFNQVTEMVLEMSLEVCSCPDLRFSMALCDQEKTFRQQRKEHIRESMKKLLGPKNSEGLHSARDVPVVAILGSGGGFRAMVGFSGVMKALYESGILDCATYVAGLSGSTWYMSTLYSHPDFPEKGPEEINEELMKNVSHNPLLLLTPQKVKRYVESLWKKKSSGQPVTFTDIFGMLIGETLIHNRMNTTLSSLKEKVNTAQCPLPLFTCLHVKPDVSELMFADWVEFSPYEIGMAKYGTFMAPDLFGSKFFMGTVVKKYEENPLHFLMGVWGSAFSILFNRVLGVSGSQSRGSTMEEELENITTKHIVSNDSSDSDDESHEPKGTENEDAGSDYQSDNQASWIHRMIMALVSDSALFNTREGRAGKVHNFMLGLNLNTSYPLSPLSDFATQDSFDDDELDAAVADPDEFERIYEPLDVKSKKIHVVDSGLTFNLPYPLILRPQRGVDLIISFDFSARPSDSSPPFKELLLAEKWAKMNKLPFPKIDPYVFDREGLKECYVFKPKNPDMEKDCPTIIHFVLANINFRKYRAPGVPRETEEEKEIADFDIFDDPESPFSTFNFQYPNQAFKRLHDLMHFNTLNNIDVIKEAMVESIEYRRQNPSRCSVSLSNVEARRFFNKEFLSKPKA

human GVIA iPLA2 = biological target: T2, human GVIA iPLA2 (Homo sapiens, UniProt O60733); experiment: mixed micelle assay, GVIA iPLA2 inhibition; format: biochemical; settings: for inhibition at 0.091 mole fraction: read-out: GVIA iPLA2 % Inhibition
T2 sequence (O60733 1-806): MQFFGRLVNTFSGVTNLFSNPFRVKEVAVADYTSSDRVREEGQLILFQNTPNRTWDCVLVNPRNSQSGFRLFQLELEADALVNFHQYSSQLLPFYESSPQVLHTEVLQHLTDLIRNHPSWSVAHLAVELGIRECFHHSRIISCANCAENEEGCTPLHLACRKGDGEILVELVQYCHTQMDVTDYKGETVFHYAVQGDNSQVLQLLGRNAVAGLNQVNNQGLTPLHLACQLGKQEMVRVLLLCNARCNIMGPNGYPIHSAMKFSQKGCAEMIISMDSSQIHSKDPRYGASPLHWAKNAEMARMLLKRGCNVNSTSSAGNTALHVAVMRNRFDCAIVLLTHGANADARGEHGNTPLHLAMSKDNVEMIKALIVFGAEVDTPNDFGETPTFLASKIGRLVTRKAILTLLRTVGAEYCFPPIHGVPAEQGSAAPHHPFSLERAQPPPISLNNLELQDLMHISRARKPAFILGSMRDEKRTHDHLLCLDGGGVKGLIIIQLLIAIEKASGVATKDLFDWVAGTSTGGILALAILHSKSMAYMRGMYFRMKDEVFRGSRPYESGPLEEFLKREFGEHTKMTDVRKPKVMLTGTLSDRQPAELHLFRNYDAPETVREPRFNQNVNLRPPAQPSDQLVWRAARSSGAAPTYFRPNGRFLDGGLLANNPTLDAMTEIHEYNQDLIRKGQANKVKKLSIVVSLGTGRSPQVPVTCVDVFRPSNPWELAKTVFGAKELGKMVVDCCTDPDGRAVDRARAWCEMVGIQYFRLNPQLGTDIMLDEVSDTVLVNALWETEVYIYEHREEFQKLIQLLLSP

human GV sPLA2 = biological target: T3, human GV sPLA2 (Homo sapiens, UniProt P39877); experiment: mixed micelle assay, GV sPLA2 inhibition; format: biochemical; settings: read-out: GV sPLA2 % Inhibition
T3 sequence (P39877 21-138): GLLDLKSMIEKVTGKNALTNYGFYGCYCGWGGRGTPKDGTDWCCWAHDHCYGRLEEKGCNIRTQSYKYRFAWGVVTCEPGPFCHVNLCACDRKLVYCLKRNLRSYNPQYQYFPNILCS

[2] = biological target: T1, recombinant human GIVA cPLA2; set-up: method as in PMID 12086476, PMID 15214789; settings: mixed micelle assay; cited from earlier work
logP measured by HPLC = format: physicochemical
RAW264.7 macrophages [3] = experiment: KLA-elicited eicosanoid production in macrophages (LC-MS/MS); format: cell-based, murine; settings: 5 μM inhibitor 1 h before KLA 100 ng/mL; supernatant at 24 h
Procedure: It is well established that the toll-like receptor 4 (TLR4)-specific agonist Kdo2-lipid A (KLA) leads to GIVA cPLA2 activation, [52] and release of arachidonic acid in macrophages that is then converted into eicosanoids by cyclooxygenase-2[53]–[55]. […] The high levels of PGD2 compared to background in culture supernatants following KLA stimulation makes it an ideal marker for GIVA cPLA2 activity in macrophages. […] RAW264.7 macrophages were pre-treated with vehicle control, DMSO or 17f (5 μM) for one hour prior to stimulation with KLA (100 ng/mL). Culture supernatants were collected after 24 hours for eicosanoid quantification by LC-MS/MS.
Figure 8 Inhibitor 17f inhibits KLA-elicited prostaglandin D2 biosynthesis by macrophages. […] Supernatants were collected 24 hr following stimulation for eicosanoid quantification.
RAW264.7 murine macrophage cells (ATCC #TIB-71) were maintained at 37 °C, 5% CO2 in DMEM (Life Technologies 11995–065) containing 10% FBS (Gemini), 100 U/mL penicillin/streptomycin, 1 mM sodium pyruvate and 4 mM L-glutamine. […] Supernatants were collected at 24 hours for eicosanoid quantification. […] Online UPLC-electrospray ionization MS/MS quantitation of eicosanoids was performed on a QTRAP 6500 hybrid quadrupole/linear ion-trap mass spectrometer (AB Sciex) via multiple reaction monitoring (MRM) in negative ion mode. […]

RAW264.7 macrophages [4] = experiment: cellular toxicity by trypan blue exclusion; format: cell-based, murine; settings: any concentration tested, data not shown
[5] = at 0.091 mole fraction of inhibitor, mixed micelles

CCCCCCCCCCCCCCC(=O)C(=O)OC [10e, Methyl 2-oxohexadecanoate] gave an inhibition at 0.091 mole fraction [1, 5] of 68.2 ± 2.7%, an inhibition at 0.091 mole fraction (human GVIA iPLA2) of 69.4 ± 12.2% and an inhibition at 0.091 mole fraction (human GV sPLA2; [5]) of 27.5 ± 0.9%.

In the case of O=C1NC(=O)/C(=C/c2ccc(C(=O)NC[C@@H]3C[C@@H](SC(c4ccccc4)(c4ccccc4)c4ccccc4)CN3C(=O)c3ccccc3C(=O)c3ccc(F)cc3F)cc2)S1 [compound 1, pyrrophenone], the “GIVA cPLA2 X I(50)” value [2] is given as 0.002 mole fraction.

For CC(C)(C)OC(=O)CCCOC(=O)C(=O)CCCCc1ccccc1 [16c, 4-(tert-Butoxy)-4-oxobutyl 2-oxo-6-phenylhexanoate], the inhibition at 0.091 mole fraction [1, 5] was < 25%, the inhibition at 0.091 mole fraction (human GVIA iPLA2) was < 25% and the inhibition at 0.091 mole fraction (human GV sPLA2; [5]) was < 25%.

With COC(=O)C(=O)CCCCc1ccc2ccccc2c1 [10b, Methyl 6-(naphthalen-2-yl)-2-oxohexanoate] the inhibition at 0.091 mole fraction [1, 5] was 55 ± 4%, the inhibition at 0.091 mole fraction (human GVIA iPLA2; [5]) was > 95% and the “GVIA iPLA2 X I(50)” value (human GVIA iPLA2; mole fraction of inhibitor in total substrate interface giving 50% inhibition) was 0.0052 mole fraction and 0.0052 ± 0.0007 mole fraction. For the same molecule, the inhibition at 0.091 mole fraction (human GV sPLA2; [5]) was < 25%.

For O=C(O)CCCOC(=O)C(=O)CCCCc1ccc(-c2ccccc2)cc1 [17d, 4-(6-(Biphenyl-4-yl)-2-oxohexanoyloxy)butanoic acid], the “GIVA cPLA2 X I(50)” value [1] was 0.00068 mole fraction and 0.00068 ± 0.00007 mole fraction, the “times less potent than 17a on GIVA cPLA2” value ([1]; ratio of X I(50) values) was “eight” and the inhibition at 0.091 mole fraction [1] was > 95%. For the same molecule, the inhibition at 0.091 mole fraction (human GVIA iPLA2) was < 25%, the inhibition at 0.091 mole fraction (human GV sPLA2) was < 25% and the melting point was 101 to 103 °C.

In the case of COC(=O)C(=O)CCCCc1ccccc1 [10a, Methyl 2-oxo-6-phenylhexanoate], the inhibition at 0.091 mole fraction [1, 5] is reported as < 25%, the inhibition at 0.091 mole fraction (human GVIA iPLA2; [5]) is reported as 72 ± 4% and the inhibition at 0.091 mole fraction (human GV sPLA2; [5]) is reported as < 25%.

With CCCCCCOc1ccc(CCCCC(=O)C(=O)OCCCC(=O)O)cc1 [17b, 4-((6-(4-(Hexyloxy)phenyl)-2-oxohexanoyl)oxy)butanoic acid] the “GIVA cPLA2 X I(50)” value [1] was 0.00289 ± 0.00043 mole fraction, the inhibition at 0.091 mole fraction [1] was > 95% and the inhibition at 0.091 mole fraction (human GVIA iPLA2) was < 25%. For the same molecule, the inhibition at 0.091 mole fraction (human GV sPLA2) was 52.6 ± 5.3%.

With O=C(O)CCCOC(=O)C(=O)CCCc1ccc(-c2ccccc2)cc1 [17g, 4-((5-([1,1′-Biphenyl]-4-yl)-2-oxopentanoyl)oxy)butanoic acid] the “GIVA cPLA2 X I(50)” value [1] was 0.0065 ± 0.002 mole fraction, the inhibition at 0.091 mole fraction [1] was > 95% and the inhibition at 0.091 mole fraction (human GVIA iPLA2) was 84 ± 1.5%. The inhibition at 0.091 mole fraction (human GV sPLA2) was < 25% and the melting point was 58 to 60 °C.

For CCCCCCCCCCCCCCC(=O)C(=O)OCCCC(=O)O [17a, 4-((2-Oxohexadecanoyl)oxy)butanoic acid], the “GIVA cPLA2 X I(50)” value [1] was 0.00008 ± 0.00001 mole fraction, the inhibition at 0.091 mole fraction [1] was > 95% and the inhibition at 0.091 mole fraction (human GVIA iPLA2) was < 25%. The inhibition at 0.091 mole fraction (human GV sPLA2) was < 25% and the melting point was 76 to 78 °C.

For CCCCCCCCCCCCCCC(=O)C(=O)OCCCCC(=O)O [17e, 5-((2-Oxohexadecanoyl)oxy)pentanoic acid], the inhibition at 0.091 mole fraction [1, 5] was > 95%, the “GIVA cPLA2 X I(50)” value [1] was 0.00007 ± 0.00001 mole fraction and the inhibition at 0.091 mole fraction (human GVIA iPLA2; [5]) was 25%. The inhibition at 0.091 mole fraction (human GV sPLA2) was < 25%.

For O=C(O)CCCCOC(=O)C(=O)CCCc1ccc(-c2ccccc2)cc1 [17h, 5-((5-([1,1′-Biphenyl]-4-yl)-2-oxopentanoyl)oxy)pentanoic acid], the inhibition at 0.091 mole fraction [1, 5] was > 95%, the “GIVA cPLA2 X I(50)” value [1] was 0.0010 ± 0.0003 mole fraction and the inhibition at 0.091 mole fraction (human GVIA iPLA2; [5]) was 94 ± 1.4%. The inhibition at 0.091 mole fraction (human GV sPLA2) was < 25%.

For CCCCCCCCCCCCCCC(=O)C(=O)O [12e, 2-Oxohexadecanoic acid], the inhibition at 0.091 mole fraction [1, 5] was 78.4 ± 3.5%, the inhibition at 0.091 mole fraction (human GVIA iPLA2) was < 25% and the inhibition at 0.091 mole fraction (human GV sPLA2; [5]) was < 25%.

With CCCCCCCCCCCCCCC(O)C(=O)OCCCC(=O)O (stereo not drawn) [compound 20, 4-((2-Hydroxyhexadecanoyl)oxy)butanoic acid] the inhibition at 0.091 mole fraction [1] was < 25%, the inhibition at 0.091 mole fraction (human GVIA iPLA2) was < 25% and the inhibition at 0.091 mole fraction (human GV sPLA2) was 41 ± 0.2%.

With CCOC(=O)CCCOC(=O)C(=O)CCCCc1ccccc1 [compound 19, 4-Ethoxy-4-oxobutyl 2-oxo-6-phenylhexanoate] the inhibition at 0.091 mole fraction [1, 5] was 27.3 ± 4.8%, the inhibition at 0.091 mole fraction (human GVIA iPLA2) was < 25% and the inhibition at 0.091 mole fraction (human GV sPLA2; [5]) was < 25%.

For O=C(O)CCCCOC(=O)C(=O)CCCCc1ccc(-c2ccccc2)cc1 [17f, 5-((6-([1,1′-Biphenyl]-4-yl)-2-oxohexanoyl)oxy)pentanoic acid], the “increase in potency compared to GK174 on GIVA cPLA2” value ([1]; addition of the carboxylic moiety) was 10 fold, the “GIVA cPLA2 X I(50)” value [1] was 0.000078 ± 0.00001 mole fraction and the inhibition at 0.091 mole fraction [1] was > 95%. The inhibition at 0.091 mole fraction (human GV sPLA2) was < 25%, the chromatographic logP (logP measured by HPLC) was 3.5 and the “decrease in KLA-elicited PGD2 production” value (RAW264.7 macrophages [3]) was “over 50%”. The cellular toxicity (RAW264.7 macrophages [4]) was “did not show cellular toxicity”.

For CCCCCCCCCCOc1ccc(OCC(=O)Cn2cc(C(=O)OC)c3cc(C(=O)O)ccc32)cc1 [compound 4, reference compound], the “GIVA cPLA2 X I(50)” value [1] was 0.00008 mole fraction and 0.00008 ± 0.000005^c mole fraction and the inhibition at 0.091 mole fraction [1] was > 95%.
